Results: BindingDB's records for doi:10.1016/j.bmcl.2006.10.074 (Abbott Laboratories, 2007)

Legend:
[1] = molecular target: 11-beta-hydroxysteroid dehydrogenase 1 (Mus musculus, UniProt P50172); assay: Human and Mouse 11beta-HSD1 SPA Assay
Protocol: (§1) Enzyme assays were performed using purified recombinant human or mouse11beta-HSD1. The fractional conversion of cortisone to cortisol was used to determine enzyme activities. The radioactive cortisol generated in the assay was captured by a monoclonal anti-cortisol antibody and SPA beads coated with anti-mouse antibodies.

[2] = molecular target: 11-beta-hydroxysteroid dehydrogenase 1 (Homo sapiens, UniProt P28845); assay: Human and Mouse 11beta-HSD1 SPA Assay; settings: pH 7.2; 22 °C
Chain of 11-beta-hydroxysteroid dehydrogenase 1 (Homo sapiens, UniProt P28845) (P28845 whole entry): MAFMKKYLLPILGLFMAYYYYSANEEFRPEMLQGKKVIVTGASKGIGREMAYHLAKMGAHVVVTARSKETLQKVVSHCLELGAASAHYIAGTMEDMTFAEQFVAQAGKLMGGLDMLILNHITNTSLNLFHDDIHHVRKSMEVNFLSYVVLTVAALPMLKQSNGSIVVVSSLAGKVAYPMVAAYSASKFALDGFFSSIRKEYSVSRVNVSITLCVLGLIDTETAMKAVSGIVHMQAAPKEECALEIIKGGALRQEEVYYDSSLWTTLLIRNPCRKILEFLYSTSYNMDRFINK
Protocol: as §1

Chain of 11-beta-hydroxysteroid dehydrogenase 1 (Mus musculus, UniProt P50172) (P50172 whole entry): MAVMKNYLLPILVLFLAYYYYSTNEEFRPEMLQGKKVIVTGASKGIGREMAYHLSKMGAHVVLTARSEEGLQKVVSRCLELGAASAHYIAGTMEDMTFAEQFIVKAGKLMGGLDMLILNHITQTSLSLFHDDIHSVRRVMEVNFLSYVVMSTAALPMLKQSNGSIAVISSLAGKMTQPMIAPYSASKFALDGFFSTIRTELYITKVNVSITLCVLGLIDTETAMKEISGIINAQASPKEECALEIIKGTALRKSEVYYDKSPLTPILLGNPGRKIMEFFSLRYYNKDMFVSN

CC(C)(Oc1ccc(F)cc1Cl)C(=O)N[C@H]1C2C[C@@H]3C[C@@H]1C[C@@](c1nnn[nH]1)(C2)C3 [2-(2-chloro-4-fluorophenoxy)-2-methyl-N-[(1R,2S,5R,7S)-5-(1H-1,2,3,4-tetrazol-5-yl)adamantan-2-yl]propanamide]
IC50 [1]: 10 nM

CNC(=O)NC(=O)[C@@]12CC3C[C@H](C[C@H](C1)[C@H]3NC(=O)C(C)(C)Oc1ccc(Cl)cc1)C2 [2-(4-chlorophenoxy)-2-methyl-N-[(1R,2S,5R,7S)-5-{[(methylcarbamoyl)amino]carbonyl}adamantan-2-yl]propanamide]
IC50 [1]: 8 nM

CC(C)(Oc1ccc(Cl)cc1)C(=O)N[C@H]1C2C[C@@H]3C[C@@H]1C[C@@](CO)(C2)C3 [2-(4-chlorophenoxy)-N-[(1R,2S,5R,7S)-5-(hydroxymethyl)adamantan-2-yl]-2-methylpropanamide]
IC50 [1]: 6 nM

CC(C)(Oc1ccc(Cl)cc1)C(=O)N[C@H]1C2C[C@@H]3C[C@@H]1C[C@@](COCC(=O)O)(C2)C3 [2-{[(1R,3R,4S,7S)-4-[2-(4-chlorophenoxy)-2-methylpropanamido]adamantan-1-yl]methoxy}acetic acid]
IC50 [2]: 110 nM | IC50 [1]: 210 nM

CC(C)(Oc1ccc(Cl)cc1)C(=O)N[C@H]1C2C[C@@H]3C[C@@H]1C[C@@](C(=O)NCc1ccc(C(=O)O)cc1)(C2)C3 [4-({[(1R,3R,4S,7S)-4-[2-(4-chlorophenoxy)-2-methylpropanamido]adamantan-1-yl]formamido}methyl)benzoic acid]
IC50 [1]: 12 nM

CC(C)(Oc1ccccc1)C(=O)N[C@H]1C2C[C@@H]3C[C@@H]1C[C@@](C(N)=O)(C2)C3 [(1R,3R,4S,7S)-4-(2-methyl-2-phenoxypropanamido)adamantane-1-carboxamide]
IC50 [1]: 4 nM

CC(C)(Oc1ccccc1)C(=O)N[C@H]1C2C[C@@H]3C[C@@H]1C[C@@](C(=O)O)(C2)C3 [(1R,3R,4S,7S)-4-(2-methyl-2-phenoxypropanamido)adamantane-1-carboxylic acid]
IC50 [1]: 119 nM

CC(C)(Oc1ccccc1Cl)C(=O)N[C@H]1C2C[C@@H]3C[C@@H]1C[C@@](C(=O)NS(C)(=O)=O)(C2)C3 [(1R,3R,4S,7S)-4-[2-(2-chlorophenoxy)-2-methylpropanamido]-N-methanesulfonyladamantane-1-carboxamide]
IC50 [2]: 96 nM | IC50 [1]: 28 nM

CC(C)(Oc1ccccc1Cl)C(=O)N[C@H]1C2C[C@@H]3C[C@@H]1C[C@@](C(=O)O)(C2)C3 [(1R,3R,4S,7S)-4-[2-(2-chlorophenoxy)-2-methylpropanamido]adamantane-1-carboxylic acid]
IC50 [2]: 8 nM | IC50 [1]: 8 nM

CC(C)(Oc1cccc(Cl)c1)C(=O)N[C@H]1C2C[C@@H]3C[C@@H]1C[C@@](C(=O)O)(C2)C3 [(1R,3R,4S,7S)-4-[2-(3-chlorophenoxy)-2-methylpropanamido]adamantane-1-carboxylic acid]
IC50 [2]: 15 nM | IC50 [1]: 51 nM

CC(C)(Oc1ccc(Cl)cc1)C(=O)N[C@H]1C2C[C@@H]3C[C@@H]1C[C@@](C(=O)NCc1cncs1)(C2)C3 [(1R,3R,4S,7S)-4-[2-(4-chlorophenoxy)-2-methylpropanamido]-N-(1,3-thiazol-5-ylmethyl)adamantane-1-carboxamide]
IC50 [1]: 11 nM

CC(C)(Oc1ccc(Cl)cc1)C(=O)N[C@H]1C2C[C@@H]3C[C@@H]1C[C@@](C(=O)NCc1ccncc1)(C2)C3 [(1R,3R,4S,7S)-4-[2-(4-chlorophenoxy)-2-methylpropanamido]-N-(pyridin-4-ylmethyl)adamantane-1-carboxamide]
IC50 [2]: 25 nM | IC50 [1]: 14 nM

CC(C)(Oc1ccc(Cl)cc1)C(=O)N[C@H]1C2C[C@@H]3C[C@@H]1C[C@@](C(=O)NCc1ccc(S(N)(=O)=O)cc1)(C2)C3 [(1R,3R,4S,7S)-4-[2-(4-chlorophenoxy)-2-methylpropanamido]-N-[(4-sulfamoylphenyl)methyl]adamantane-1-carboxamide]
IC50 [2]: 51 nM | IC50 [1]: 24 nM

CC(C)(Oc1ccc(Cl)cc1)C(=O)N[C@H]1C2C[C@@H]3C[C@@H]1C[C@@](C(=O)NCc1ccc(-c4nnn[nH]4)cc1)(C2)C3 [(1R,3R,4S,7S)-4-[2-(4-chlorophenoxy)-2-methylpropanamido]-N-{[4-(1H-1,2,3,4-tetrazol-5-yl)phenyl]methyl}adamantane-1-carboxamide]
IC50 [1]: 18 nM

CC(C)(Oc1ccc(Cl)cc1)C(=O)N[C@H]1C2C[C@@H]3C[C@@H]1C[C@@](C(N)=O)(C2)C3 [(1R,3R,4S,7S)-4-[2-(4-chlorophenoxy)-2-methylpropanamido]adamantane-1-carboxamide]
IC50 [1]: 3 nM

CC(C)(Oc1ccc(Cl)cc1)C(=O)N[C@H]1C2C[C@@H]3C[C@@H]1C[C@@](C(=O)O)(C2)C3 [(1R,3R,4S,7S)-4-[2-(4-chlorophenoxy)-2-methylpropanamido]adamantane-1-carboxylic acid]
IC50 [1]: 70 nM

COc1ccc(OC(C)(C)C(=O)N[C@H]2C3C[C@@H]4C[C@@H]2C[C@@](C(N)=O)(C3)C4)cc1 [(1R,3R,4S,7S)-4-[2-(4-methoxyphenoxy)-2-methylpropanamido]adamantane-1-carboxamide]
IC50 [1]: 4 nM

CC(C)(Oc1ccccc1Cl)C(=O)N[C@H]1C2C[C@@H]3C[C@@H]1C[C@@](C(=O)NS(=O)(=O)c1ccccc1)(C2)C3 [(1R,3R,4S,7S)-N-(benzenesulfonyl)-4-[2-(2-chlorophenoxy)-2-methylpropanamido]adamantane-1-carboxamide]
IC50 [2]: 500 nM | IC50 [1]: 1000 nM

CC(C)(Oc1ccc(Cl)cc1)C(=O)N[C@H]1C2C[C@@H]3C[C@@H]1C[C@@](C(=O)NCC(N)=O)(C2)C3 [N-[(1R,2S,5R,7S)-5-[(carbamoylmethyl)carbamoyl]adamantan-2-yl]-2-(4-chlorophenoxy)-2-methylpropanamide]
IC50 [1]: 4 nM
